Read-outs that look alike come from different tables or passages of the source.

Assay [1] has as its target T1, SIRT1 (Homo sapiens, UniProt Q96EB6).
T1 sequence (Q96EB6 1-747): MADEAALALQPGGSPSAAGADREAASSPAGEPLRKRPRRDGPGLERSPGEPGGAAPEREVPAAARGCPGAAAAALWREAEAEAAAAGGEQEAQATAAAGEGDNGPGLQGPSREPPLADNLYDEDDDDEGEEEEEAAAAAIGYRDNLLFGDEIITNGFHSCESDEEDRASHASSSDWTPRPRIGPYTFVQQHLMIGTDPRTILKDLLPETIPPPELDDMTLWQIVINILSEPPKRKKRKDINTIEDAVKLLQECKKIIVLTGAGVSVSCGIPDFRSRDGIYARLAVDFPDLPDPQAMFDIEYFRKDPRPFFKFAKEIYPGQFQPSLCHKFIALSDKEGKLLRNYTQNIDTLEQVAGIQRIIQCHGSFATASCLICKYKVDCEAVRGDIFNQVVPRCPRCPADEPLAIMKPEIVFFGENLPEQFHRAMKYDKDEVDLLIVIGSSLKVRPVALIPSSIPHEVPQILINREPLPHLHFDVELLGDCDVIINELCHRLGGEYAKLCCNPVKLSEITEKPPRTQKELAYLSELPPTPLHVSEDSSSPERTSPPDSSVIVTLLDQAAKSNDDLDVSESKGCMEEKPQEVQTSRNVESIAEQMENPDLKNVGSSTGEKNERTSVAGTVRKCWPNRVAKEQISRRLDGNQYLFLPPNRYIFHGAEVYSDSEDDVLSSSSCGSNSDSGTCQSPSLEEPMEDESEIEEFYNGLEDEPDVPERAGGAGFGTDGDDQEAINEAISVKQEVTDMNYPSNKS
Kind of assay: SIRT1 deacetylation of Trp 5-mer peptide, OAADPr mass spec assay.
Procedure: (§1) All assays were performed at room temperature in reaction buffer (50 mM HEPES, pH 7.5, 150 mM NaCl, 1 mM DTT, 0.05% BSA). […] To prepare the assays for analysis, 20 μL of reaction volume was mixed in 80 μL of 50:50 acetonitrile:methanol mixture. […] Peak data was integrated using RapidFire Integrator software (Agilent, Santa Clara, Calif.).

The target in assay [2] is T2, SIRT2 (Homo sapiens, UniProt Q8IXJ6).
T2 sequence (Q8IXJ6 1-389): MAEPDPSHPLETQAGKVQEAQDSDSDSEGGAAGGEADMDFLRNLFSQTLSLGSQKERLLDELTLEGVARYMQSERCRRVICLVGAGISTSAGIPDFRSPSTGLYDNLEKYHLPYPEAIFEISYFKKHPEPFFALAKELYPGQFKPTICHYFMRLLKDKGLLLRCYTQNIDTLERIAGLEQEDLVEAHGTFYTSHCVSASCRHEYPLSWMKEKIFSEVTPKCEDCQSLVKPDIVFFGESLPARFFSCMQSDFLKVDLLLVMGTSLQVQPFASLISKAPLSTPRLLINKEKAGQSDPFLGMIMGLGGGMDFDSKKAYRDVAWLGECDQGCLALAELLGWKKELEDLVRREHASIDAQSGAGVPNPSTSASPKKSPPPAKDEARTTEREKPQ
Nature of the assay: SIRT2 deacetylation of Trp 5-mer peptide, OAADPr mass spec assay. It counts as biochemical. On the set-up: His-SIRT2(1-389).

Assay [3] has as its target T3, SIRT3 (Homo sapiens, UniProt Q9NTG7).
T3 sequence (Q9NTG7 102-399): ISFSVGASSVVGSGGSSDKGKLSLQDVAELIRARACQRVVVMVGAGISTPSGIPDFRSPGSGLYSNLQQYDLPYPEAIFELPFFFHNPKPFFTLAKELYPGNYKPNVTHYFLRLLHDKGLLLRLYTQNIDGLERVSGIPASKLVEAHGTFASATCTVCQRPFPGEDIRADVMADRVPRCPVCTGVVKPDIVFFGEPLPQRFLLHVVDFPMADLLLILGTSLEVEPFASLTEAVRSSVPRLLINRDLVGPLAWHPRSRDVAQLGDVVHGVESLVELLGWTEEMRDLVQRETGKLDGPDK
Kind of assay: SIRT3 deacetylation of Trp 5-mer peptide, OAADPr mass spec assay. The settings on record: Trp SIRT3_IC50, Trp 5-mer peptide; class symbols.
Procedure: as §1

Setting [4] is: IC50 (μM) SIRT1, Trp 5-mer peptide and NAD at KM, mean of at least three determinations.
Where [5] appears, read: Trp SIRT1_IC50, Trp 5-mer peptide, class symbols.
The mark [6] stands for this setting: Trp 5-mer peptide and NAD at KM, mean of at least three determinations, read-out: IC50 (μM) SIRT2.
Where [7] appears, read: Trp 5-mer peptide, class symbols, read-out: Trp SIRT2_IC50.
Setting [8] is: read-out: IC50 (μM) SIRT1, Trp 5-mer peptide and NAD at KM, mean of at least three determinations.
The mark [9] stands for this setting: Trp SIRT2_IC50, Trp 5-mer peptide, class symbols.

Turning to `NC(=O)c1cc2ncnc(N3CCC(CCNC(=O)c4cccs4)CC3)c2s1` [Compound 19, 4-(4-(2-(thiophene-2-carboxamido)ethyl)piperidin-1-yl)thieno[3,2-d]pyrimidine-6-carboxamide], the IC50 in assay [1] (setting [4]) was 0.006 µM; in assay [1] (setting [5]), under 1 µM; in assay [2] (setting [6]), 0.007 µM; in assay [2] (setting [7]), under 1 µM.
In the case of `NC(=O)c1cc2ncnc(N3CCC(C4CCNCC4)CC3)c2s1` [Compound 56], the figures for the IC50 in assay [1] (setting [5]), in assay [2] (setting [7]) and in assay [3] were under 1 µM, under 1 µM and under 1000 nM, respectively.
As for `NC(=O)c1cc2ncnc(N3CCC(CCNC(=O)c4ccc(C(=O)O)s4)CC3)c2s1` [Compound 18, 5-((2-(1-(6-carbamoylthieno[3,2-d]pyrimidin-4-yl)piperidin-4-yl)ethyl)carbamoyl)thiophene-2-carboxylic acid], the IC50 is under 1 µM in assay [1] (setting [5]), 0.014 µM in assay [1] (setting [8]), 0.004 µM in assay [2] (setting [6]) and under 1 µM in assay [2] (setting [7]).
As to `CC(=S)NCCN1CCN(c2ncnc3cc(C(N)=O)sc23)CC1` [Compound 26], the IC50 in assay [1] (setting [5]) is under 1 µM; in assay [1] (setting [8]) it was 0.49 µM; in assay [2] (setting [6]), 0.13 µM; in assay [2] (setting [7]) it was under 1 µM.
Regarding `NC(=O)c1cc2ncnc(N3CCC(CCN4CCCC4)CC3)c2s1` [Compound 34], the IC50 was under 1 µM in assay [1] (setting [5]), 0.11 µM in assay [1] (setting [8]), 0.067 µM in assay [2] (setting [6]) and under 1 µM in assay [2] (setting [7]).
With `CC(C)(C)C(=O)NCCC1CCN(c2ncnc3cc(C(N)=O)oc23)CC1` [Compound 36, 4-(4-(2-pivalamidoethyl)piperidin-1-yl)furo[3,2-d]pyrimidine-6-carboxamide], the IC50 in assay [1] (setting [5]) was under 1 µM; in assay [1] (setting [8]), 0.47 µM; in assay [2] (setting [6]), 0.15 µM; in assay [2] (setting [7]) it was under 1 µM.
Consider `CC(C)(C)C(=O)NCCC1CCN(c2ncnc3cc(C(=O)O)sc23)CC1` [Compound 40, 4-(4-(2-Pivalamidoethyl)piperidin-1-yl)thieno[3,2-d]pyrimidine-6-carboxylic acid 2,2,2-trifluoroacetate], for which the IC50 in assay [1] (setting [5]) and in assay [2] (setting [7]) was over 10 µM in each case. In addition, the “SIRT1 inhibition, in words” value in assay [1] (at the concentrations tested) is on record as “no measurable”. The “SIRT2 inhibition, in words” value in assay [2] (at the concentrations tested) is recorded as “no measurable”.
With `Cc1c(C(N)=O)sc2c(N3CCC(CCNC(=O)C(C)(C)C)CC3)ncnc12` [Compound 39, 7-methyl-4-(4-(2-pivalamidoethyl)piperidin-1-yl)thieno[3,2-d]pyrimidine-6-carboxamide], the IC50 is under 1 µM in assay [1] (setting [5]), 0.18 µM in assay [1] (setting [8]), 0.13 µM in assay [2] (setting [6]) and under 1 µM in assay [2] (setting [7]).
`CC(C)(C)C(=O)NCCCC1CCN(c2ncnc3cc(C(N)=O)sc23)CC1` [Compound 29, 4-(4-(3-pivalamidopropyl)piperidin-1-yl)thieno[3,2-d]pyrimidine-6-carboxamide]: the IC50 in assay [1] (setting [5]) is under 1 µM; in assay [1] (setting [8]), 0.042 µM; in assay [2] (setting [6]) it was 0.016 µM; in assay [2] (setting [7]), under 1 µM.
Consider `NC(=O)c1cc2ncnc(N3CCC(CN4CCCC4)CC3)c2s1` [Compound 33], for which the IC50 was under 1 µM in assay [1] (setting [5]), 0.73 µM in assay [1] (setting [8]), 0.22 µM in assay [2] (setting [6]) and under 1 µM in assay [2] (setting [7]).
Consider `CC(C)(C)C(=O)NCC1CCN(c2ncnc3cc(C(N)=O)sc23)CC1` [Compound 27, 4-(4-(pivalamidomethyl)piperidin-1-yl)thieno[3,2-d]pyrimidine-6-carboxamide], for which the IC50 in assay [1] (setting [5]) was 1 to 10 µM; in assay [1] (setting [8]), 4.3 µM; in assay [2] (setting [6]), 0.74 µM; in assay [2] (setting [7]) it was under 1 µM.
`CC(C)(C)OC(=O)c1ccc(C(=O)NCCC2CCN(c3ncnc4cc(C(N)=O)sc34)CC2)s1` [Compound 17, tert-butyl 5-((2-(1-(6-carbamoylthieno[3,2-d]pyrimidin-4-yl)piperidin-4-yl)ethyl)carbamoyl)thiophene-2-carboxylate]: the IC50 is 0.007 µM in assay [1] (setting [4]); under 1 µM in assay [1] (setting [5]); 0.001 µM in assay [2] (IC50 (μM) SIRT2, Trp 5-mer peptide and NAD at KM, mean of at least three determinations); under 1 µM in assay [2] (setting [9]).
`CC(C)(C)C(=O)NCCC1CCN(c2ccnc3cc(C(N)=O)sc23)CC1` [Compound 37, 7-(4-(2-pivalamidoethyl)piperidin-1-yl)thieno[3,2-b]pyridine-2-carboxamide]: the IC50 in assay [1] (setting [5]) was under 1 µM; in assay [1] (setting [8]), 0.059 µM; in assay [2] (setting [6]), 0.028 µM; in assay [2] (setting [7]), under 1 µM.
With `CS(=O)(=O)NCCN1CCN(c2ncnc3cc(C(N)=O)sc23)CC1` [Compound 32, 4-(4-(2-(methylsulfonamido)ethyl)piperazin-1-yl)thieno[3,2-d]pyrimidine-6-carboxamide 2,2,2-trifluoroacetate], the IC50 was under 1 µM in assay [1] (setting [5]), 0.38 µM in assay [1] (setting [8]), 0.053 µM in assay [2] (setting [6]) and under 1 µM in assay [2] (setting [7]).
As to `CC(C)(C)OC(=O)NCCC1CCN(c2ncnc3cc(C(N)=O)sc23)CC1` [Compound 15a, tert-butyl (2-(1-(6-carbamoylthieno[3,2-d]pyrimidin-4-yl)piperidin-4-yl)ethyl)carbamate], the IC50 is under 1 µM in assay [1] (setting [5]), 0.017 µM in assay [1] (setting [8]), 0.005 µM in assay [2] (setting [6]) and under 1 µM in assay [2] (setting [7]).
For `CC(C)(C)C(=O)NCCN1CCN(c2ncnc3cc(C(N)=O)sc23)CC1` [Compound 30, 4-(4-(2-pivalamidoethyl)piperazin-1-yl)thieno[3,2-d]pyrimidine-6-carboxamide], the IC50 was under 1 µM in assay [1] (setting [5]), 0.12 µM in assay [1] (setting [8]), 0.017 µM in assay [2] (setting [6]) and under 1 µM in assay [2] (setting [7]).
Take `NCCC1CCN(c2ncnc3cc(C(N)=O)sc23)CC1` [Compound 16a, 4-(4-(2-aminoethyl)piperidin-1-yl)thieno[3,2-d]pyrimidine-6-carboxamide]: the IC50 was 1 to 10 µM in assay [1] (setting [5]), 1.6 µM in assay [1] (setting [8]), 0.11 µM in assay [2] (setting [6]) and under 1 µM in assay [2] (setting [9]).
For the compound `CC(=O)NCCN1CCN(c2ncnc3cc(C(N)=O)sc23)CC1` [Compound 24], the IC50 in assay [1] (setting [5]) was 1 to 10 µM; in assay [1] (setting [8]) it was 1.6 µM; in assay [2] (setting [6]), 0.17 µM; in assay [2] (setting [7]), under 1 µM.
For `CC(C)(C)OC(=O)NCC1CCN(c2ncnc3cc(C(N)=O)sc23)CC1` [Compound 57, tert-butyl ((1-(6-carbamoylthieno[3,2-d]pyrimidin-4-yl)piperidin-4-yl)methyl)carbamate], the IC50 was 1 to 10 µM in assay [2] (setting [7]) and over 10000 nM in assay [3].
In the case of `CS(=O)(=O)NCCC1CCN(c2ncnc3cc(C(N)=O)sc23)CC1` [Compound 31], the values for the IC50 in assay [2] (setting [6]) and in assay [2] (setting [7]) were 0.001 µM and under 1 µM, respectively.
For the compound `NC(=O)c1cc2ncnc(N3CCN(CCN4CCCC4)CC3)c2s1` [Compound 35, 4-(4-(2-(Pyrrolidin-1-yl)ethyl)piperazin-1-yl)thieno[3,2-d]pyrimidine-6-carboxamide bis(2,2,2-trifluoroacetate)], the IC50 in assay [1] (setting [5]) is under 1 µM; in assay [1] (setting [8]), 0.053 µM; in assay [2] (setting [6]) it was 0.029 µM; in assay [2] (setting [7]) it was under 1 µM.
As for `CC(=O)NCCC1CCN(c2ncnc3cc(C(N)=O)sc23)CC1` [Compound 20], the IC50 in assay [1] (setting [5]) was under 1 µM; in assay [1] (setting [8]) it was 0.11 µM; in assay [2] (setting [6]), 0.023 µM; in assay [2] (setting [7]), under 1 µM.

The values are drawn from patent US20160002273A1, “THIENO[3,2-D]PYRIMIDINE-6-CARBOXAMIDES AND ANALOGUES AS SIRTUIN MODULATORS” (GLAXOSMITHKLINE LLC, priority 2013, published 2016).
